According to ChEMBL document CHEMBL4725370, “Discovery of Proteolysis-Targeting Chimera Molecules that Selectively Degrade the IRAK3 Pseudokinase” (J Med Chem, 2020):
Activity calls are given as the source filed them. The rule behind the calls is not given here.

Assays:
[1] = target: Cyclin-C/Cyclin-dependent kinase 19 (Homo sapiens) (UniProt Q9BWU1+P24863); experiment: Inhibition of CDK11/cyclin C (unknown origin) at 0.1 uM relative to control; assay type: protein-complex assay
[2] = target: Serine/threonine-protein kinase haspin (Homo sapiens) (UniProt Q8TF76); experiment: Inhibition of GSG2 (unknown origin) at 0.1 uM relative to control
[3] = target: T1, Interleukin-1 receptor-associated kinase 3 (Homo sapiens, UniProt Q9Y616); experiment: Inhibition of kinase tracer 236 binding to recombinant human full-length GST-tagged IRAK3 expressed in insect cells by Lanthascreen Eu kinase binding assay
T1 sequence (Q9Y616 whole entry): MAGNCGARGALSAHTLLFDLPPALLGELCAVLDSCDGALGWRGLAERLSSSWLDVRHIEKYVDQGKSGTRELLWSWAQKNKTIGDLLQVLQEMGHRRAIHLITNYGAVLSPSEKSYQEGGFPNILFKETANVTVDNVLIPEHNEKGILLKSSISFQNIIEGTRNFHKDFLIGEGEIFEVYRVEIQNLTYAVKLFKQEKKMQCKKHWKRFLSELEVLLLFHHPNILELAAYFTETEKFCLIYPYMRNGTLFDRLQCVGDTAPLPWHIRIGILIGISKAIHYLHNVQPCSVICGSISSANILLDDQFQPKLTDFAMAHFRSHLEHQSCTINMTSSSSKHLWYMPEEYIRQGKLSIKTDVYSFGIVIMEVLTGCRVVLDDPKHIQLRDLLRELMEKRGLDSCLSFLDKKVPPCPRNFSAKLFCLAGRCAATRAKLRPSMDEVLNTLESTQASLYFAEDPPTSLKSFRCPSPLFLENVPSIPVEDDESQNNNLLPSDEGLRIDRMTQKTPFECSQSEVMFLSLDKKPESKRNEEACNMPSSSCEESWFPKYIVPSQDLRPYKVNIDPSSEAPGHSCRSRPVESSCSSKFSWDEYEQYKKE

[4] = target: CDK8/Cyclin C (Homo sapiens) (UniProt P49336+P24863); experiment: Inhibition of CDK8/cyclin C (unknown origin) at 0.1 uM relative to control; assay type: protein-complex assay
[5] = target: T2, Serine/threonine-protein kinase haspin (Homo sapiens, UniProt Q8TF76); experiment: Inhibition of GSG2 (unknown origin)
T2 sequence (Q8TF76 whole entry): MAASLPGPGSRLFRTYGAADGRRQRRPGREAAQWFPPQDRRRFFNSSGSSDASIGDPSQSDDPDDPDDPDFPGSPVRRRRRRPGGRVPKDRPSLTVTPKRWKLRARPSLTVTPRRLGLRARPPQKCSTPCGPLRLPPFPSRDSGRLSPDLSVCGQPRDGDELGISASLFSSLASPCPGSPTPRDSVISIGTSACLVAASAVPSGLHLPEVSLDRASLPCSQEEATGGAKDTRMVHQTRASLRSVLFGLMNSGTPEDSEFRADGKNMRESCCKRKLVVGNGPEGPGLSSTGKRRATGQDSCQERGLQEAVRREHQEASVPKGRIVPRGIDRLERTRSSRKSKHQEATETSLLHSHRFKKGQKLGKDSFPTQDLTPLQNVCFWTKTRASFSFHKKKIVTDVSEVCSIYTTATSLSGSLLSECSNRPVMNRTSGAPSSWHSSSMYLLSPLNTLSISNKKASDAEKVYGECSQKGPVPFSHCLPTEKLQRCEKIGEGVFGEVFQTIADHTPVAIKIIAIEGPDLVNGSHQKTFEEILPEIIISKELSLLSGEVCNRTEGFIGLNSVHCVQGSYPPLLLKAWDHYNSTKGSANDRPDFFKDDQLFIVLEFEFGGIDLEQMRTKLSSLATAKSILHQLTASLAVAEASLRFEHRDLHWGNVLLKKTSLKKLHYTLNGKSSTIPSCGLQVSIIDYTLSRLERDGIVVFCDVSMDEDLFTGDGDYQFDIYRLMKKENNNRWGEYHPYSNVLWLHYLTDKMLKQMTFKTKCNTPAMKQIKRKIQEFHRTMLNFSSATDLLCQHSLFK

[6] = target: Interleukin-1 receptor-associated kinase 3 (Homo sapiens) (UniProt Q9Y616); experiment: Inhibition of IRAK3 (unknown origin) at 0.1 uM relative to control
[7] = target: T3, Protein cereblon/Interleukin-1 receptor-associated kinase 3 (Homo sapiens, UniProt Q9Y616+Q96SW2); experiment: Protac activity at CRBN/IRAK3 in human PBMC derived primary macrophages assessed as induction of IRAK3 degradation at 0.3 uM preincubated for 8 hrs followed by LPS-stimulation and measured after 8 to 32 hrs by Western blot analysis; assay type: tissue-based; settings: Primary macrophage
Target sequence in this assay (Q96SW2 whole entry, looked up, one chain of several): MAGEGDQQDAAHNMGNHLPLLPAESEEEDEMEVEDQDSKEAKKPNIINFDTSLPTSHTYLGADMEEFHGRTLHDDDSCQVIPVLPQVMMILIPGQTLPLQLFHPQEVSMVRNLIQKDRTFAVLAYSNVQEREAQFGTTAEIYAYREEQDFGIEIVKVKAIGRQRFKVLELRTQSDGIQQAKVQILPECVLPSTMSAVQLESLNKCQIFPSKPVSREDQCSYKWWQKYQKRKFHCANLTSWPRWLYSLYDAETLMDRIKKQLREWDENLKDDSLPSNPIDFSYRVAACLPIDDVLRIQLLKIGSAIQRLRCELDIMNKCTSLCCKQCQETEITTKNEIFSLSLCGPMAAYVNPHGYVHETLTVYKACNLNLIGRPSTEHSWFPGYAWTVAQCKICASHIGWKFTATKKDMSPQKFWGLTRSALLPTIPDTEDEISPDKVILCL

[8] = target: T3, Protein cereblon/Interleukin-1 receptor-associated kinase 3; experiment: Protac activity at CRBN/IRAK3 in human PBMC derived primary macrophages assessed as induction of IRAK3 degradation at 0.3 uM measured after 8 to 32 hrs by Western blot analysis; assay type: tissue-based; settings: Primary macrophage, time hrs 8-32
Target sequence in this assay (Q96SW2 whole entry, looked up, one chain of several): as above

[9] = target: T3, Protein cereblon/Interleukin-1 receptor-associated kinase 3; experiment: Protac activity at CRBN/IRAK3 in LPS-induced human THP1 cells assessed as induction of IRAK3 degradation after 16 hrs by Western blot analysis; assay type: cell-based; settings: thp-1
Target sequence in this assay (Q96SW2 whole entry, one chain of several): as the sequence (Q96SW2 whole entry, looked up, one chain of several) above

[10] = target: Protein cereblon (Homo sapiens, UniProt Q96SW2); experiment: Inhibition of CRBN (unknown origin)
[11] = Octanol/buffer partition coefficient, log D of the compound at pH 7.4 by shake-flask method; assay type: physicochemical
[12] = target: T4, Interleukin-1 receptor-associated kinase 4 (Homo sapiens, UniProt Q9NWZ3); experiment: Inhibition of recombinant human full-length His-tagged IRAK4 expressed in baculovirus expression system using 5-FAM-IPTSPITTTYFFFKKK-COOH as substrate measured after 240 mins by mobility shift assay
T4 sequence (Q9NWZ3 whole entry): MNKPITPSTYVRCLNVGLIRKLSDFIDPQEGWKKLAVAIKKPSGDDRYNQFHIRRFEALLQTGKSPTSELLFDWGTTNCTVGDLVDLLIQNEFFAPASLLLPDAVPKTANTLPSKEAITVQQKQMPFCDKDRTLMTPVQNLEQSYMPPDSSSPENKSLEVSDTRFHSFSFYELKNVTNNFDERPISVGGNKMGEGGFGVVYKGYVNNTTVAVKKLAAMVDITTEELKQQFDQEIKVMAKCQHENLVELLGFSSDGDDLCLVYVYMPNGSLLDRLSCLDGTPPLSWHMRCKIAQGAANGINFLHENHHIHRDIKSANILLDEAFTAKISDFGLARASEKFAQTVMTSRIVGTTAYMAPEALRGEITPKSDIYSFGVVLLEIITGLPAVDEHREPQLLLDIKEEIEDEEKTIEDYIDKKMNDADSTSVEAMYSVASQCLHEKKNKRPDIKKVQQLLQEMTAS

[13] = target: T3, Protein cereblon/Interleukin-1 receptor-associated kinase 3; experiment: Protac activity at CRBN/IRAK3 in human THP1 cells assessed as induction of IRAK3 degradation at 0.1 to 10 uM measured after 24 hrs by Western blot analysis; assay type: cell-based; settings: THP-1, dose microM 0.1-10, time […]
Target sequence in this assay (Q96SW2 whole entry, looked up, one chain of several): as the sequence (Q96SW2 whole entry, looked up, one chain of several) above

[14] = target: Interleukin-1 receptor-associated kinase 1 (Homo sapiens, UniProt P51617); experiment: Inhibition of recombinant human N-terminal GST-tagged IRAK1 (194 to 712 residues) expressed in baculovirus expression system using 5-FAM-KKKVSRSGLYRSPSMPENLNRPR-COOH as substrate measured after 240 mins by mobility shift assay
[15] = Intrinsic apparent permeability across apical to basolateral side in human Caco-2 cells
[16] = Efflux ratio of apparent permeability in human Caco-2 cells

Chain of Interleukin-1 receptor-associated kinase 1 (P51617 whole entry, the tested form may be a part): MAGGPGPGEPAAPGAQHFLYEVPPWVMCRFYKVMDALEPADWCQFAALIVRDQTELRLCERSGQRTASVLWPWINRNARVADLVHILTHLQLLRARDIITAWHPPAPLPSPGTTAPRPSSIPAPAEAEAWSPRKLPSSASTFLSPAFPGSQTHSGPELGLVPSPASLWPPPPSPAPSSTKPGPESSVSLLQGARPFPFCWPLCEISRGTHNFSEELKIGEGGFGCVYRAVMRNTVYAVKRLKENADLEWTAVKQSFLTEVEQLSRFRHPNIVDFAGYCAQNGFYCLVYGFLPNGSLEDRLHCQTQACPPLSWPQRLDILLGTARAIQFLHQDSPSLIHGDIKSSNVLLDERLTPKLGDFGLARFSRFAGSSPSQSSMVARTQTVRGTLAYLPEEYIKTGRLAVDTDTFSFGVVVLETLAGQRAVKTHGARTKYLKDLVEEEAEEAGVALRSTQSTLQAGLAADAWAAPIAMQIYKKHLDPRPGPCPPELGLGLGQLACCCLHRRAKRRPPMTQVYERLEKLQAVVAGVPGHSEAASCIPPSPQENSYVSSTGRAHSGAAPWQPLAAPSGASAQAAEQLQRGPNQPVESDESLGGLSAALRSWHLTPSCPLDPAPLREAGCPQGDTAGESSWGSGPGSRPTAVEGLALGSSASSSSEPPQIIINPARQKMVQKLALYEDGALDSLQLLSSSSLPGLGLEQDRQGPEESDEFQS
Chain of Protein cereblon (Q96SW2 whole entry): as the sequence (Q96SW2 whole entry, looked up, one chain of several) above

| SMILES | inhibition [1] [%] | inhibition [2] [%] | IC50 [3] [nM] | inhibition [4] [%] | IC50 [5] [nM] | inhibition [6] [%] | Activity [7] | Activity [8] | DC50 [9] [nM] | IC50 [10] [nM] | logD [11] | IC50 [12] [nM] | Activity [13] | IC50 [14] [nM] | Papp A→B [15] [×10⁻⁶ cm/s] | efflux ratio [16] |
| --- | --- | --- | --- | --- | --- | --- | --- | --- | --- | --- | --- | --- | --- | --- | --- | --- |
| CC(=O)N1CCN([C@H]2CC[C@@H](Nc3ncnn4ccc(C(C)C)c34)CC2)CC1 | 51 | 55 | 6 | 39 | 150 | 91 |  |  |  |  |  |  |  |  |  |  |
| CC(C)c1ccn2ncnc(N[C@H]3CC[C@@H](N4CCN(C(=O)CCC(=O)N5CCC(CCN6CCN(c7ccc8c(c7)C(=O)N(C7CCC(=O)N(C)C7=O)C8=O)CC6)CC5)CC4)CC3)c12 (stereo partly specified) |  |  | 4 |  |  |  | inactive | inactive | > 10000 | > 12000 | 3.7 | > 1000 | inactive | 3400 |  |  |
| CC(=O)N1CCN([C@H]2CC[C@@H](Nc3ncnc4[nH]cc(C(C)C)c34)CC2)CC1 |  |  | 4 |  |  |  |  |  |  |  | 2.3 | 840 |  | 1400 | 12 | 4.3 |
